Test results taken from ChEMBL document CHEMBL3045614, “Antifeedant activity of vicolides from Pentanema indicum” (1999).

What was measured:
Format in all cases: functional
Olepa ricini [1] = experiment: Antifeedant activity against moulted fifth larval stage of Olepa ricini infested on castor leaves assessed as feeding deterrence index at 2 ppm by leaf disk assay relative to control
Olepa ricini [2] = experiment: Antifeedant activity against moulted fifth larval stage of Olepa ricini infested on castor leaves assessed as feeding deterrence index at 2000 ppm by leaf disk assay relative to control
Euproctis fraterna [3] = experiment: Antifeedant activity against moulted fifth larval stage of Euproctis fraterna infested castor leaves assessed as feeding deterrence index at 2 ppm by leaf disk assay relative to control
Euproctis fraterna [4] = experiment: Antifeedant activity against moulted fifth larval stage of Euproctis fraterna infested castor leaves assessed as feeding deterrence index at 20 ppm by leaf disk assay relative to control
Euproctis fraterna [5] = experiment: Antifeedant activity against moulted fifth larval stage of Euproctis fraterna infested castor leaves assessed as feeding deterrence index at 200 ppm by leaf disk assay relative to control
Olepa ricini [6] = experiment: Antifeedant activity against moulted fifth larval stage of Olepa ricini infested on castor leaves assessed as feeding deterrence index at 200 ppm by leaf disk assay relative to control
Olepa ricini [7] = experiment: Antifeedant activity against moulted fifth larval stage of Olepa ricini infested on castor leaves assessed as feeding deterrence index at 20 ppm by leaf disk assay relative to control
Euproctis fraterna [8] = experiment: Antifeedant activity against moulted fifth larval stage of Euproctis fraterna infested castor leaves assessed as feeding deterrence index at 2000 ppm by leaf disk assay relative to control
Euproctis fraterna [9] = experiment: Antifeedant activity against moulted fifth larval stage of Euproctis fraterna infested castor leaves assessed as feeding deterrence index at 0.2 ppm by leaf disk assay relative to control
Olepa ricini [10] = experiment: Antifeedant activity against moulted fifth larval stage of Olepa ricini infested on castor leaves assessed as feeding deterrence index at 0.2 ppm by leaf disk assay relative to control

Structure (SMILES)	FDI (Olepa ricini [1])	FDI (Olepa ricini [2])	FDI (Euproctis fraterna [3])	FDI (Euproctis fraterna [4])	FDI (Euproctis fraterna [5])	FDI (Olepa ricini [6])	FDI (Olepa ricini [7])	FDI (Euproctis fraterna [8])	FDI (Euproctis fraterna [9])	FDI (Olepa ricini [10])
C=C1C(=O)O[C@H]2[C@H]1[C@@H](O)[C@H](OC(=O)/C(C)=C\C)[C@H](C)[C@@H]1C(=O)C=C(C)[C@H]21 [VICOLIDE A]	13.35%	42.86%	8.99%	15.33%	15.33%	29.66%	22.28%	15.06%	8.43%	6.17%
C=C1C(=O)O[C@@H]2C/C(C)=C\C(=O)C[C@@H](C)[C@@H](OC(=O)/C(C)=C\C)[C@H](O)[C@@H]12 [VICOLIDE B]	21.06%	48.68%	13.98%	20.28%	22.54%	40.93%	24.36%	57.03%	12.17%	12.83%
C=C1C(=O)O[C@H]2[C@H]1[C@@H](OC(=O)[C@@H](C)CC)[C@H](OC(C)=O)[C@H](C)C[C@@H](O)[C@H]1O[C@@]1(C)[C@@H]2O [VICOLIDE C]	9.61%	38.26%	18.6%	22.37%	26.76%	30.59%	17.74%	26.56%	13.98%	4.44%
C=C1C(=O)O[C@@H]2C/C(C)=C\C(=O)C[C@@H](C)[C@@H](OC(=O)[C@]3(C)O[C@@H]3C)[C@H](O)[C@@H]12 [VICOLIDE D]	17.74%	46.88%	14.44%	15.37%	20.46%	40.93%	27.62%	35.68%	10.99%	10.61%
